Results on 18 compounds are retold here after US20250320246A1, “3-AZASTEROID COMPOUNDS FOR THE TREATMENT OF DISEASES RELATED TO MITROCHONDRIAL FUNCTION” (NZP UK LIMITED, priority 2022, published 2025).

The assay has as its system sporadic PD patient fibroblasts. Nature of the assay: Cellular ATP levels in sporadic PD patient fibroblasts, Preliminary ATP assay. It counts as cell-based, human. The following applies: Homo sapiens, Fibroblast, 24 h, % of vehicle treated sPD fibroblasts, 3 sporadic PD patients; for activity at 0.1 µM: 100 nM, read-out: Average ATP Response 100 nM; for activity at 1 µM: read-out: Average ATP Response 1 μM. Here is the method:
In some cases, a preliminary ATP protocol was used in which EC50 was not determined. The preliminary ATP protocol is generally as described in Mortiboys et al 2008. Briefly, fibroblasts were cultured and plated into white, clear-bottom 384 well plates at a concentration of 4000 cells per well in 50 μl of media volume. The plates are left overnight in an incubator to allow the fibroblasts to adhere to the plate surface. The following morning the Glucose based medium is replaced with 25 μl of Galactose based medium. The cells were then dosed with 100 nM and 1 μM concentrations of the compounds using a ECHO 550 liquid handling system. After dosing the wells are topped up with a further 25 μl of Galactose based medium and then left in an incubator for 24 hours. Following this incubation, the medium is removed from the plate and the wells are washed twice with sterile PBS. The wells are filled with 20 μl of Sterile PBS followed by 10 μl of Lysis solution from the ATPlite™ Luminescence ATP detection assay system (Perkin Elmer), including 14 cell free wells to use as blank controls. The plate is then placed on a rotary shaker for 10 mins at 700 rpm. Following the shaking 10 μl of ATP substrate solution (Perkin Elmer) is added to each well and a further 5 min of shaking. The plate is then incubated in the dark for 10 minutes prior to reading. Using a FLUOstar® Omega plate reader, luminescence intensity is recorded. Following the ATP assay the plates are immediately assayed for DNA content in a CyQUANT® assay.
Immediately following The ATP assay DNA content is assessed with the CyQUANT® NF Cell Proliferation Assay Kit (ThermoFisher). CyQUANT® buffer is prepared immediately before the assay and is comprised of 2 μl CyQUANT® dye per ml×1 HBSS solution. 10 μl of CyQUANT® buffer is added to each well. Cell plates were then incubated for 1 hour before being read on a FLUOStar® Plate reader with excitation at 497 nm and emission at 520 nm.
The ATP Quantification for each well is determined as set out above.

SMILES strings stand for the structures.

Regarding `CSCC[C@H](NC(=O)CC[C@@H](C)[C@H]1CC[C@H]2[C@@H]3[C@@H](O)C[C@@H]4CNCC[C@]4(C)[C@H]3CC[C@]12C)C(=O)O` [Compound 61a, N-(3-Aza-7β-hydroxy-5β-cholan-24-oyl)-(S)-2-amino-4-(methylthio)butanoic acid], the activity at 0.1 µM was determined as 105% and the activity at 1 µM is 108%.

In the case of `CC(C)C[C@H](NC(=O)CCC[C@@H](C)[C@H]1CC[C@H]2[C@@H]3[C@@H](O)C[C@@H]4CNCC[C@]4(C)[C@H]3CC[C@]12C)C(=O)O` [Compound 75b, N-(3-Aza-7β-hydroxy-25-homo-5β-cholan-25-oyl)-(S)-2-amino-4-methylpentanoic acid], the activity at 0.1 µM worked out at 112% and the activity at 1 µM was 106%.

As for `CC(CC(=O)O)NC(=O)CCC[C@@H](C)[C@H]1CC[C@H]2[C@@H]3[C@@H](O)C[C@@H]4CNCC[C@]4(C)[C@H]3CC[C@]12C` (stereo partly drawn) [Compound 74b, N-(3-Aza-7β-hydroxy-25-homo-5β-cholan-25-oyl)-3-aminobutanoic acid], the activity at 0.1 µM turned out to be 103% and the activity at 1 µM was 98.5%.

Regarding `C[C@H](CCC(=O)N1CCC(=O)CC1)[C@H]1CC[C@H]2[C@@H]3[C@@H](O)C[C@@H]4CN(C(=O)OCc5ccccc5)CC[C@]4(C)[C@H]3CC[C@]12C` [Compound 79a, N-{(benzyloxycarbonyl)-3-aza-7β-hydroxy-5β-cholan-24-oyl}-4-piperidone], the activity at 0.1 µM was 116% and the activity at 1 µM turned out to be 122%.

`C[C@H](CCC(=O)Nc1ccc(C(=O)O)cc1)[C@H]1CC[C@H]2[C@@H]3[C@@H](O)C[C@@H]4CNCC[C@]4(C)[C@H]3CC[C@]12C` [Compound 60a, N-(3-Aza-7β-hydroxy-5β-cholan-24-oyl)-4-aminobenzoic acid]: the activity at 0.1 µM stood at 102% and the activity at 1 µM was found to be 102%.

With `C[C@H](CCC(=O)N[C@@H](CO)C(=O)O)[C@H]1CC[C@H]2[C@@H]3[C@@H](O)C[C@@H]4CNCC[C@]4(C)[C@H]3CC[C@]12C` [Compound 57a, N-(3-Aza-7β-hydroxy-5β-cholan-24-oyl)-(S)-2-amino-3-hydroxypropanoic acid], the activity at 0.1 µM was found to be 109% and the activity at 1 µM worked out at 107%.

Consider `CC(C)[C@H](NC(=O)CC[C@@H](C)[C@H]1CC[C@H]2[C@@H]3[C@@H](O)C[C@@H]4CNCC[C@]4(C)[C@H]3CC[C@]12C)C(=O)O` [Compound 65a, N-(3-Aza-7β-hydroxy-5β-cholan-24-oyl)-(S)-2-amino-3-methylbutanoic acid], for which the activity at 0.1 µM was found to be 111% and the activity at 1 µM stood at 108%.

For `C[C@H](CCC(=O)NCCS(=O)(=O)O)[C@H]1CC[C@H]2[C@@H]3[C@@H](O)C[C@@H]4CNCC[C@]4(C)[C@H]3CC[C@]12C` [Compound 51a, N-(3-Aza-7β-hydroxy-5β-cholan-24-amide)-ethylsulfonic acid], the activity at 0.1 µM is 101% and the activity at 1 µM is 107%.

As to `CC(C)OC(=O)c1ccc(NC(=O)CC[C@@H](C)[C@H]2CC[C@H]3[C@@H]4[C@@H](O)C[C@@H]5CNCC[C@]5(C)[C@H]4CC[C@]23C)cc1` [Compound 63a, N-(3-Aza-7β-hydroxy-5β-cholan-24-oyl)-(isopropyl-4-aminobenzoate)], the activity at 0.1 µM was found to be 106% and the activity at 1 µM came out at 104%.

As to `C[C@H](CCCC(=O)N[C@@H](CC(=O)O)C(=O)O)[C@H]1CC[C@H]2[C@@H]3[C@@H](O)C[C@@H]4CNCC[C@]4(C)[C@H]3CC[C@]12C` [Compound 70b, N-(3-Aza-7β-hydroxy-25-homo-5β-cholan-25-oyl)-(S)-2-aminobutanedioic acid], the activity at 0.1 µM came out at 106% and the activity at 1 µM is 107%.

As to `C[C@H](CCC(=O)N[C@H](CC(=O)O)c1ccccc1)[C@H]1CC[C@H]2[C@@H]3[C@@H](O)C[C@@H]4CN(C)CC[C@]4(C)[C@H]3CC[C@]12C` [Compound 54a, N-(3-Methyl-aza-7β-hydroxy-5β-cholan-24-oyl)-(R)-3-amino-3-phenylpropanoic acid], the activity at 0.1 µM came to 109% and the activity at 1 µM turned out to be 107%.

In the case of `C[C@H](CCCC(=O)N[C@@H](Cc1ccc(O)cc1)C(=O)O)[C@H]1CC[C@H]2[C@@H]3[C@@H](O)C[C@@H]4CNCC[C@]4(C)[C@H]3CC[C@]12C` [Compound 77b, N-(3-Aza-7β-hydroxy-25-homo-5β-cholan-25-oyl)-(2S)-2-amino-3-(4-hydroxyphenyl)propanoic acid], the activity at 0.1 µM amounted to 109% and the activity at 1 µM came to 113%.

With `C[C@H](CCC(=O)N[C@@H](COC(C)(C)C)C(=O)O)[C@H]1CC[C@H]2[C@@H]3[C@@H](O)C[C@@H]4CN(C)CC[C@]4(C)[C@H]3CC[C@]12C` [Compound 53a, N-(3-Methyl-aza-7β-hydroxy-5β-cholan-24-oyl)-(2S)-2-amino-3-[(2-methylpropan-2-yl)oxy]propanoic acid], the activity at 0.1 µM stood at 109% and the activity at 1 µM is 102%.

`C[C@H](CCCC(=O)NC1CCOC1)[C@H]1CC[C@H]2[C@@H]3[C@@H](O)C[C@@H]4CN(C(=O)OCc5ccccc5)CC[C@]4(C)[C@H]3CC[C@]12C` (stereo partly drawn) [Compound 80b, N-{(benzyloxycarbonyl)-3-aza-7β-hydroxy-25-homo-5β-cholan-25-oyl}-3-aminotetrahydrofuran]: the activity at 0.1 µM worked out at 122% and the activity at 1 µM is 120%.

On to `C[C@H](CCC(=O)N1CC2(COC2)C1)[C@H]1CC[C@H]2[C@@H]3[C@@H](O)C[C@@H]4CN(C(=O)OCc5ccccc5)CC[C@]4(C)[C@H]3CC[C@]12C` [Compound 78a, N-{(benzyloxycarbonyl)-3-aza-7β-hydroxy-5β-cholan-24-oyl}-2-oxa-6-azospiro{3,3}heptane], for which the activity at 0.1 µM turned out to be 121% and the activity at 1 µM came out at 120%.

As to `C[C@H](CCCC(=O)O)[C@H]1CC[C@H]2[C@@H]3[C@@H](O)C[C@@H]4CN(C(=O)OCc5ccccc5)CC[C@]4(C)[C@H]3CC[C@]12C` [Compound 50b, N-(benzyloxycarbonyl)-3-aza-7β-hydroxy-24-homo-5β-cholan-25-oic acid], the activity at 0.1 µM turned out to be 101% and the activity at 1 µM is 99.8%.

`C[C@H](CCCC(=O)N[C@@H](COC(C)(C)C)C(=O)O)[C@H]1CC[C@H]2[C@@H]3[C@@H](O)C[C@@H]4CNCC[C@]4(C)[C@H]3CC[C@]12C` [Compound 71b, N-(3-Aza-7β-hydroxy-25-homo-5β-cholan-25-oyl)-(2S)-2-amino-3-[(2-methylpropan-2-yl)oxy]propanoic acid]: the activity at 0.1 µM amounted to 106% and the activity at 1 µM is 104%.

Regarding `C[C@H](CCC(=O)NCCC(=O)O)[C@H]1CC[C@H]2[C@@H]3[C@@H](O)C[C@@H]4CNCC[C@]4(C)[C@H]3CC[C@]12C` [Compound 62a, N-(3-Aza-7β-hydroxy-5β-cholan-24-amide)-propanoic acid], the activity at 0.1 µM came to 108% and the activity at 1 µM was 108%.
